Values of other authors, collected in patent US5889008A, “Substituted 1-indolylpropyl-4-phenethylpiperazadine derivatives” (Merck Sharp & Dohme, Ltd., priority 1995, dated 1999).

How the values were obtained:
[1] = system: human 5-HT1Dα and 5-HT1Dβ receptor subtypes; conditions: cf. WO-A-91/17174, Table 1
[2] = system: humans; conditions: therapeutic doses

CNS(=O)(=O)Cc1ccc2[nH]cc(CCN(C)C)c2c1 [sumatriptan]
discrimination between the human 5-HT1Dα and 5-HT1Dβ receptor subtypes [1]: barely discriminates between the human 5-HT1Dα and 5-HT1Dβ receptor subtypes
adverse cardiovascular events [2]: certain adverse cardiovascular events
